Data as given in US10981894B2, “Melanocortin subtype-2 receptor (MC2R) antagonists and uses thereof” (Crinetics Pharmaceuticals, Inc., priority 2018, dated 2021).

Biological target: hMC2 receptor (Homo sapiens, UniProt Q01718)
Assay: hMC2 membrane binding assay ([125I]ACTH (1-39) Tyr23, SPA)
Parameters: scale not given here
Conditions: crude hMC2R membranes from CRE-bla-CHO-K1 cells expressing hMC2 receptor and hMRAP; [125I]ACTH (1-39) Tyr23 0.2 nM; 1.5 hours at room temperature; read-out: MC2R binding potency
Experimental: Crude membrane fractions are prepared from CRE-bla-CHO-K1 cells stably expressing hMC2 receptor and hMRAP accessory protein (Thermo Fisher). The cells are grown to 85-100% confluence on standard tissue culture dishes in GlutaMax DMEM growth media (Gibco) with following additives: 10% dialyzed FBS (Gemini), 0.1 mM NEAA (Gibco), 25 mM HEPES (Gibco), 5 μg/mL blasticidin (Goldbio), 100 μg/mL zeocin (Invitrogen), 600 μg/mL hygromycin (Goldbio). To prepare membranes, cells are scraped and collected in 1× Dulbecco's phosphate buffered saline (Corning) and then pelleted at 1000 RPM's. The cell pellet is reconstituted in membrane preparation buffer (20 mM HEPES, 6 mM MgCl2 and 1 mM EGTA, protease inhibitor tablets (Pierce) adjusted to pH 7.4), homogenized using a dounce homogenizer, and the resulting membrane fraction is pelleted by centrifugation at 12,000 RPM's. The membrane pellet is resuspended in membrane preparation buffer, snap freezed and stored at −80° C. for later use.
Binding Assay for hMC2 Antagonists Protocol:
The hMC2 membrane binding assay utilizes the following components: radiolabel [^125I]ACTH (1-39) Tyr23 (PerkinElmer), wheatgerm agglutinin coated PVT SPA beads (PerkinElmer), crude hMC2R membranes, and compounds. Briefly hMC2R membranes are incubated with SPA beads in binding assay buffer (50 mM HEPES, 5 mM MgCl2, 1 mM CaCl2, 0.2% BSA, protease inhibitor tablets (Pierce) adjusted to pH7.4) prior to assay initiation. A dose response of compound (the final concentration of compound are typically 0-10,000 nM), SPA membranes, and [^125I]ACTH (1-39) Tyr23 at a final concentration of 0.2 nM is plated in a 96-well assay plate and allowed to incubate 1.5 hours at room temperature. Assay plates are read using a Top Count NXT and Ki values for compounds are determined using a GraphPad Prism 6 non-linear regression analysis.

Sequence of hMC2 receptor (Q01718 whole entry): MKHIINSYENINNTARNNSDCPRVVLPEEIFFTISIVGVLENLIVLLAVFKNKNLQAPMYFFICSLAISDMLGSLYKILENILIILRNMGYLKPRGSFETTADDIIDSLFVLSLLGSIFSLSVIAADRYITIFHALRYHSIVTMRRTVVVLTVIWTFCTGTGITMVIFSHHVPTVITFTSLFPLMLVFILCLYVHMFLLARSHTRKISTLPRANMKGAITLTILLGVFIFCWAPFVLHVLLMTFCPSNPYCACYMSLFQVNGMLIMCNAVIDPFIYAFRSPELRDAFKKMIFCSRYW
Sequence of hMC2 receptor (Q8TCY5 whole entry partner): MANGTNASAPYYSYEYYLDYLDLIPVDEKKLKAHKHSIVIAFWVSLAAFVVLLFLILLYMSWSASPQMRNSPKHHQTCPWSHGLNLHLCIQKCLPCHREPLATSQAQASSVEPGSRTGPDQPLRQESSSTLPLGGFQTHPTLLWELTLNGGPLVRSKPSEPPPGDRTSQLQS

Structure (SMILES) | Ki [µM]
CCOc1ncccc1-c1ccc(N2CCN(C(=O)OC(C(C)(C)C)C(F)(F)F)C[C@H]2CC)c(C(=O)N[C@@H]2CCNC2)n1 (single isomer, unassigned) [Compound 1-367, (2S*)-1,1,1-trifluoro-3,3-dimethylbutan-2-yl (3R)-4-(2′-ethoxy-6-{[(3R)-pyrrolidin-3-yl]carbamoyl}-[2,3′-bipyridin]-5-yl)-3-ethylpiperazine-1-carboxylate] | < 0.01
CCOc1ncccc1-c1ccc(N2CCN(C(=O)OC(C(C)(C)C)C(F)(F)F)C[C@H]2CC)c(C(=O)N[C@@H]2CCN(C)C2)n1 (single isomer, unassigned) [Compound 1-392, (2S*)-1,1,1-trifluoro-3,3-dimethylbutan-2-yl (3R)-4-(2′-ethoxy-6-{[(3R)-1-methylpyrrolidin-3-yl]carbamoyl}-[2,3′-bipyridin]-5-yl)-3-ethylpiperazine-1-carboxylate] | < 0.01
CCOc1ncccc1-c1ccc(N2CCN(C(=O)O[C@@H](C(C)(C)C)C(F)(F)F)C[C@H]2CC)c(C(=O)NCC2CN(C)C2)n1 (single isomer, unassigned) [Compound 1-396, (2S)-1,1,1-trifluoro-3,3-dimethylbutan-2-yl (3R)-4-(2′-ethoxy-6-{[(1-methylazetidin-3-yl)methyl]carbamoyl}-[2,3′-bipyridin]-5-yl)-3-ethylpiperazine-1-carboxylate; or (2R)-1,1,1-trifluoro-3,3-dimethylbutan-2-yl (3R)-4-(2′-ethoxy-6-{[(1-methylazetidin-3-yl)methyl]carbamoyl}-[2,3′-bipyridin]-5-yl)-3-ethylpiperazine-1-carboxylate] | < 0.01
CCOc1ncccc1-c1ccc(N2CCN(C(=O)O[C@H](C(C)(C)C)C(F)(F)F)C[C@H]2CC)c(C(=O)N[C@@H]2CCN(C)C2)n1 (single isomer, unassigned) [Compound 1-406] | < 0.01
CCOc1ncccc1-c1ccc(N2CCN(C(=O)O[C@@H](C(C)(C)C)C(F)(F)F)C[C@H]2CC)c(C(=O)N[C@@H]2CCN(C)C2)n1 (single isomer, unassigned) [Compound 1-407] | < 0.01
CC[C@@H]1CN(C(=O)c2ccc(C(F)(F)F)cc2Cl)CCN1c1ccc(-c2cccc(F)c2F)cc1C(=O)NCCN [Compound 1-1, N-(2-aminoethyl)-4-[(2R)-4-[2-chloro-4-(trifluoromethyl)benzoyl]-2-ethylpiperazin-1-yl]-2′,3′-difluoro-[1,1′-biphenyl]-3-carboxamide] | 0.01 to 0.1
CC[C@@H]1CN(C(=O)c2ccc(C(F)(F)F)cc2Cl)CCN1c1ccc(-c2ccccc2OC)cc1C(=O)NCCN [Compound 1-2, N-(2-aminoethyl)-4-[(2R)-4-[2-chloro-4-(trifluoromethyl)benzoyl]-2-ethylpiperazin-1-yl]-2′-methoxy-[1,1′-biphenyl]-3-carboxamide] | < 0.01
CCOc1ccccc1-c1ccc(N2CCN(C(=O)c3ccc(C(F)(F)F)cc3Cl)C[C@H]2CC)c(C(=O)NCCN)c1 [Compound 1-3, N-(2-aminoethyl)-4-[(2R)-4-[2-chloro-4-(trifluoromethyl)benzoyl]-2-ethylpiperazin-1-yl]-2′-ethoxy-[1,1′-biphenyl]-3-carboxamide] | < 0.01
CC[C@@H]1CN(C(=O)c2ccc(C(F)(F)F)cc2Cl)CCN1c1ccc(-c2ccccc2F)cc1C(=O)NCCN [Compound 1-4, N-(2-aminoethyl)-4-[(2R)-4-[2-chloro-4-(trifluoromethyl)benzoyl]-2-ethylpiperazin-1-yl]-2′-fluoro-[1,1′-biphenyl]-3-carboxamide] | 0.01 to 0.1
CC[C@@H]1CN(C(=O)c2ccc(C(F)(F)F)cc2Cl)CCN1c1ccc(-c2ccccc2Cl)cc1C(=O)NCCN [Compound 1-6, N-(2-aminoethyl)-2′-chloro-4-[(2R)-4-[2-chloro-4-(trifluoromethyl)benzoyl]-2-ethylpiperazin-1-yl]-[1,1′-biphenyl]-3-carboxamide] | 0.01 to 0.1
CC[C@@H]1CN(C(=O)c2ccc(C(F)(F)F)cc2Cl)CCN1c1ccc(-c2ccccc2C#N)cc1C(=O)NCCN [Compound 1-7, N-(2-aminoethyl)-4-[(2R)-4-[2-chloro-4-(trifluoromethyl)benzoyl]-2-ethylpiperazin-1-yl]-2′-cyano-[1,1′-biphenyl]-3-carboxamide] | 0.01 to 0.1
CC[C@@H]1CN(C(=O)c2ccc(C(F)(F)F)cc2Cl)CCN1c1ccc(-c2ccccc2C)cc1C(=O)NCCN [Compound 1-8, N-(2-aminoethyl)-4-[(2R)-4-[2-chloro-4-(trifluoromethyl)benzoyl]-2-ethylpiperazin-1-yl]-2′-methyl-[1,1′-biphenyl]-3-carboxamide] | 0.01 to 0.1
CC[C@@H]1CN(C(=O)c2ccc(C(F)(F)F)cc2Cl)CCN1c1ccc(-c2cccc(F)c2Cl)cc1C(=O)NCCN [Compound 1-9, N-(2-aminoethyl)-2′-chloro-4-[(2R)-4-[2-chloro-4-(trifluoromethyl)benzoyl]-2-ethylpiperazin-1-yl]-3′-fluoro-[1,1′-biphenyl]-3-carboxamide] | 0.01 to 0.1
CCCOc1ccccc1-c1ccc(N2CCN(C(=O)c3ccc(C(F)(F)F)cc3Cl)C[C@H]2CC)c(C(=O)NCCN)c1 [Compound 1-11, N-(2-aminoethyl)-4-[(2R)-4-[2-chloro-4-(trifluoromethyl)benzoyl]-2-ethylpiperazin-1-yl]-2′-propoxy-[1,1′-biphenyl]-3-carboxamide] | 0.01 to 0.1
CCOc1ccccc1-c1ccc(N2CCN(C(=O)c3ccc(Cl)cc3Cl)C[C@H]2CC)c(C(=O)NCCN)c1 [Compound 1-15, (R)-N-(2-aminoethyl)-4-(4-(2,4-dichlorobenzoyl)-2-ethylpiperazin-1-yl)-2′-ethoxy-[1,1′-biphenyl]-3-carboxamide] | < 0.01
CC[C@@H]1CN(C(=O)c2ccc(C(F)(F)F)cc2Cl)CCN1c1ccc(-c2ccccc2COC)cc1C(=O)NCCN [Compound 1-16, (R)-N-(2-aminoethyl)-4-(4-(2-chloro-4-(trifluoromethyl)benzoyl)-2-ethylpiperazin-1-yl)-2′-(methoxymethyl)-[1,1′-biphenyl]-3-carboxamide] | 0.01 to 0.1
CCOc1ccccc1-c1ccc(N2CCN(C(=O)c3ccc(F)cc3-c3ccc(CN)cc3)C[C@H]2CC)c(C(=O)NCCN)c1 [Compound 1-17, N-(2-aminoethyl)-4-[(2R)-4-[4′-(aminomethyl)-5-fluoro-[1,1′-biphenyl]-2-carbonyl]-2-ethylpiperazin-1-yl]-2′-ethoxy-[1,1′-biphenyl]-3-carboxamide] | < 0.01
CCOc1ccccc1-c1ccc(N2CCN(C(=O)c3ccc(C)cc3-c3ccc(CN)cc3)C[C@H]2CC)c(C(=O)NCCN)c1 [Compound 1-18, (R)-N-(2-aminoethyl)-4-(4-(4′-(aminomethyl)-5-methyl-[1,1′-biphenyl]-2-carbonyl)-2-ethylpiperazin-1-yl)-2′-ethoxy-[1,1′-biphenyl]-3-carboxamide] | < 0.01
CC[C@@H]1CN(C(=O)c2ccc(C(F)(F)F)cc2Cl)CCN1c1ccc(-c2ccccc2C(=O)OC)cc1C(=O)NCCN [Compound 1-19, methyl (R)-3′-((2-aminoethyl)carbamoyl)-4′-(4-(2-chloro-4-(trifluoromethyl)benzoyl)-2-ethylpiperazin-1-yl)-[1,1′-biphenyl]-2-carboxylate] | 0.01 to 0.1
